Patent publication US6670307B2, “1,3-oxazoline and 1,3-thiazoline derivatives, their preparation, and their use as pesticides” (Hoechst Schering AgrEvo GmbH, priority 1998, dated 2003)

Experiments:
Heliothis virescens = assay: Effect on the egg-larval stage of Heliothis virescens; format: in vivo; conditions: 144 h, read-out: mortality of eggs and any larvae hatched from them
Method: Effect on the Egg-Larval Stage of Heliothis virescens
A Petri dish whose bottom was covered with filter paper and which contained approx. 5 ml of nutrient medium was prepared. Filter paper sections containing approx. 30 24-hour-old eggs of the tobacco budworm (Heliothis virescens) were immersed for 5 seconds into an aqueous solution of the formulated preparation to be tested and subsequently placed in the Petri dish. A further 200 μl of the aqueous solution were distributed over the nutrient medium. After the Petri dish had been sealed, it was stored in a controlled-environment cabinet at approx. 25° C. After 6 days' storage, the mortality of the preparation on the eggs and any larvae hatched from them was determined. At a concentration of 300 ppm (based on the active substance content), a 90-100% mortality was caused by the preparations of Examples 1, 2, 3, 4, 5, 6, 7, 8, 14, 17, 21, 22, 23, 34, 35, 39, 40, 43, 44, 106.

Lucilia cuprina = assay: Effect on the larvae of the copperbottle Lucilia cuprina (treated nutrient medium); format: in vivo; conditions: for mortality at 100 ppm: Lucilia cuprina, 72 h, read-out: mortality in the fly larvae; for mortality in the fly larvae: 100 ppm in larval nutrient medium of ground mutton, monitored over 72 hours
Method: Effect on the Larvae of the Copperbottle Lucilia cuprina
In a sample container, 20 recently hatched larvae of the copperbottle Lucilia cuprina were placed on a larval nutrient medium of ground mutton which contained the test substance in a concentration of 100 ppm. Larval growth on the nutrient medium is monitored over 72 hours up to larva 3. At a concentration of 100 ppm (based on the active substance content), a 100% mortality in the fly larvae employed was shown by the preparations of Examples 2, 3, 4, 5, 105, 106.

[1] = system: Diabrotica undecimpunctata; assay: Effect on the corn budworm Diabrotica undecimpunctata (L2 larvae, soil application); format: in vivo; conditions: for mortality at 300 ppm: Diabrotica undecimpunctata, soil, 120 h, read-out: mortality of the test animals; for mortality of the test animals: 300 ppm (based on active substance content), 1 ml pipetted onto soil, L2 larvae, after 5 days at 21° C.
Method: Effect on the Corn Budworm Diabrotica undecimpunctata
Maize seed was pregerminated for 6 hours while submerged in water, then placed into 10-ml glass tubes and covered with 2 ml of soil in each case. After 1 ml of water had been added, the plants remained in the glass tubes at 21° C. until plant length was approx. 3 cm. 10 L2 larvae of the corn budworm (Diabrotica undecimpunctata) were then introduced into each tube on the soil. Two hours later, 1 ml of an aqueous solution of the formulated preparation to be tested were pipetted onto the soil surface in the tubes. After storage for 5 days under laboratory conditions at 21° C., the soil and root sections were examined for live Diabrotica larvae and the mortality was determined. At a concentration of 300 ppm (based on the active substance content), a 100% mortality of the test animals employed was shown by the preparations of Example 2, 3, 5, 9, 19, 39.

Tetranychus urticae = assay: Effect on the spider mites Tetranychus urticae (spray on infested bean plants); format: in vivo; conditions: 168 h, read-out: mortality of all mite stages
Method: Effect on the Spider Mites Tetranychus urticae
Bean plants (Phaseolus vulgaris) which were severely infested with a complete population of spider mites (Tetranychus urticae) were sprayed to runoff point with an aqueous solution of the formulated preparation to be tested. The mortality of all mite stages was determined after 7 days. At a concentration of 300 ppm (based on active substance content), a 90-100% mortality was shown by the preparations of Examples 1, 2, 3, 4, 7, 8, 9, 14, 18, 21, 31, 40, 41, 43, 44, 47, 51, 106, 152 and 153.

Aphis fabae = assay: Effect on the aphid Aphis fabae (spray on infested field beans); format: in vivo; conditions: 72 h, read-out: mortality of the aphids
Method: Effect on the Aphid Aphis fabae
Field beans (Vicia faba) which were densly populated with the black bean aphid (Aphis fabae) were sprayed to runoff point with an aqueous solution of the formulated preparation to be tested. The mortality of the aphids was determined after 3 days. At a concentration of 300 ppm (based on the active substance content), a 90-100% mortality was shown by the preparations of Examples 1, 2, 3, 4, 7, 8, 152.

Ctenocephalides felis = assay: Effect on developmental stages of the cat flea Ctenocephalides felis (treated larval medium); format: in vivo; conditions: 1000 ppm in larval nutrient medium, approx. 30 flea eggs, read-out: mortality (hatching of flea larvae and development into pupae and adult fleas)
From the text: Effect on Developmental Stages of the Cat Flea Ctenocephalides felis
The larval nutrient medium of the cat flea, composed of equal parts of blood meal and quartz sand, was admixed with the test substance at a concentration of 1000 ppm. Approx. 30 flea eggs freshly obtained from a breeding colony were transferred onto the medium. To assess the affect of the preparation, hatching of the flea larvae and their development into pupae and adult fleas was observed. A mortality of 100% was caused by the test substances of Examples 2, 3 and 4.

Spodoptera litoralis = assay: Effect on the butterfly larva Spodoptera litoralis (L4 larvae, Petri dish spray); format: in vivo; conditions: 96 h, read-out: larval mortality
Method: Effect on the Butterfly Larva Spodoptera litoralis
Ten L4 larvae of the Egyptian cotton leafworm (Spodoptera litoralis) were introduced into a Petri dish whose bottom was covered with filter paper and contained approx. 5 ml of nutrient medium. Filter paper, nutrient paper and the larvae which had been introduced were then sprayed with an aqueous solution of the formulated preparation to be tested. The Petri dish was subsequently sealed with a lid. After 4 days' storage at approx. 23° C., the effect of the preparation on the larvae was determined. At a concentration of 300 ppm (based on the active substance content), a 90-100% larval mortality was caused by the preparations of Examples 3, 4, 22, 105, 106.

Row | Compound | mortality at 300 ppm (Heliothis virescens) | mortality at 100 ppm (Lucilia cuprina) | mortality at 300 ppm [1] | mortality at 300 ppm (Tetranychus urticae) | mortality at 300 ppm (Aphis fabae) | further results
1 | CCOc1ccc(-c2ccc(C3COC(c4c(F)cccc4F)=N3)cc2)cn1 (stereo not shown) [Example 2, 2-(2,6-Difluorophenyl)-4-[4-(2-ethoxypyridin-5-yl)phenyl]oxazoline] | 90 to 100% | 100% | 100% | 90 to 100% | 90 to 100% | mortality at 1000 ppm (Ctenocephalides felis): 100%
2 | Fc1cccc(F)c1C1=NC(c2ccc(-c3ccc(OCC(F)(F)F)nc3)cc2)CO1 (stereo not shown) [Example 3, 2-(2,6-Difluorophenyl)-4-[4-(2-trifluoroethoxypyridin-5-yl)phenyl]oxazoline] | 90 to 100% | 100% | 100% | 90 to 100% | 90 to 100% | mortality at 300 ppm (Spodoptera litoralis): 90 to 100%; mortality at 1000 ppm (Ctenocephalides felis): 100%
3 | CCCOc1ccc(-c2ccc(C3COC(c4c(F)cccc4F)=N3)cc2)cn1 (stereo not shown) [Example 4, 2-(2,6-Difluorophenyl)-4-[4-(2-n-propyloxypyridin-5-yl)phenyl]oxazoline] | 90 to 100% | 100% |  | 90 to 100% | 90 to 100% | mortality at 300 ppm (Spodoptera litoralis): 90 to 100%; mortality at 1000 ppm (Ctenocephalides felis): 100%
4 | CC(C)Oc1ccc(-c2ccc(C3COC(c4c(F)cccc4F)=N3)cc2)cn1 (stereo not shown) [Example 5] |  |  |  |  |  | mortality in the fly larvae (Lucilia cuprina): 100%; mortality of the test animals [1]: 100%
5 | CC(C)COc1ccc(-c2ccc(C3COC(c4c(F)cccc4F)=N3)cc2)cn1 (stereo not shown) [Example 8, 2-(2,6-Difluorophenyl)-4-[4-(2-isobutyloxypyridin-5-yl)phenyl]oxazoline] | 90 to 100% |  |  | 90 to 100% | 90 to 100% | 
6 | CCC(C)Oc1ccc(-c2ccc(C3COC(c4c(F)cccc4F)=N3)cc2)cn1 (stereo not shown) [Example 9] |  |  |  |  |  | mortality of the test animals [1]: 100%
7 | Fc1cccc(F)c1C1=NC(c2ccc(-c3ccc(OCC(F)(F)F)nc3)cc2)CS1 (stereo not shown) [Example 19, 2-(2,6-Difluorophenyl)-4-[4-(2-trifluoroethoxypyridin-5-yl)phenyl]thiazoline] |  |  | 100% |  |  | 
8 | CCCc1ccc(-c2ccc(C3COC(c4c(F)cccc4F)=N3)cc2)cn1 (stereo not shown) [Example 34, 2-(2,6-Difluorophenyl)-4-[4-(2-n-propylpyridin-5-yl)phenyl]oxazoline] | 90 to 100% |  |  |  |  | 
9 | CCSc1ccc(-c2ccc(C3COC(c4c(F)cccc4F)=N3)cc2)cn1 (stereo not shown) [Example 39, 2-(2,6-Difluorophenyl)-4-[4-(2-ethylthiopyridin-5-yl)phenyl]oxazoline] | 90 to 100% |  | 100% |  |  | 
10 | CC[S+]([O-])c1ccc(-c2ccc(C3COC(c4c(F)cccc4F)=N3)cc2)cn1 (stereo not shown) [Example 40, 2-(2,6-Difluorophenyl)-4-[4-(2-ethylsulfinylpyridin-5-yl)phenyl]oxazoline] | 90 to 100% |  |  | 90 to 100% |  | 
11 | CCOc1ccc(-c2ccc(C3COC(c4c(F)cccc4F)=N3)c(OC)c2)cn1 (stereo not shown) [Example 105] |  |  |  |  |  | mortality in the fly larvae (Lucilia cuprina): 100%
12 | CCOc1cc(-c2ccc(OCC(F)(F)F)nc2)ccc1C1COC(c2c(F)cccc2F)=N1 (stereo not shown) [Example 106, 2-(2,6-Difluorophenyl)-4-[2-ethoxy-4-(2-trifluoroethoxypyridin-5-yl)phenyl]-oxazoline] | 90 to 100% | 100% |  | 90 to 100% |  | mortality at 300 ppm (Spodoptera litoralis): 90 to 100%
13 | Fc1ccccc1C1=NC(c2ccc(-c3ccc(OCC(F)(F)F)nc3)cc2)CO1 (stereo not shown) [Example 402, 2-(2-Fluorophenyl)-4-[4-(2-trifluoroethoxypyridin-5-yl)phenyl]oxazoline] |  |  |  |  |  | melting point: 101 °C
